The subject of one test is PC-3-KR-Luc cells. Briefly: Bone metastasis assay, prevention mode. The class given is in vivo, Balb/c nude mice. The following applies: 100 mg/kg intragastric every day. An excerpt: (§1) Male Balb/c nude mice at 3-4 weeks old were purchased from Charles River (Beijing, China). Upon arrival at the Animal Center of the Southern University of Science and Technology (SUSTech), mice were quarantined for one week before use. All mice were maintained and handled following the National Institutes of Health guide for the Care and Use of Laboratory Animals. To measure if NTZ inhibits Ac-KLF5-induced bone metastasis, we used both prevention and therapy modes. […] Then the mice were randomly divided into vehicle and NTZ groups (six mice in each group) and received treatment at day 0. The tumor growth and body weight were determined every week. After 5 weeks of treatment, all mice were sacrificed and bone tissues and major organs were resected for hematoxylin and eosin (H&E) staining. The selection of 5 weeks for investigation is based on the pilot experiment, in which clear bone metastases formed at 5 weeks after injection but no tumors were detected in other organs, including the brain, liver, lung, spleen, heart, prostate, seminal vesicle, small intestine, and testes (data not shown). Tumor growth in the bone was determined once a week by in vivo BL imaging using the Living Image Software 4.4 (IVIS Spectrum, PerkinElmer Health Sciences, Massachusetts, USA). Ten minutes after intraperitoneal injection of D-luciferin sodium salt (15 mg/mL, 10 μL/g BW) (GM-040611, Genomeditech, Shanghai, China), bioluminescence images were acquired with the following conditions: open emission filter, exposure time = 60 s, binning = medium: 8, field of view = 12.9 ×12.9 cm, and f/stop = 1. Images were then analyzed using the Living Image 4.4 software (PerkinElmer). At the end of treatment, bioluminescence intensities were measured by photon flux of the region of interest (ROI) and compared between the vehicle and NTZ treatment groups. […] CC0113, […] Biotechnology, Beijing, China) was used as vehicle control, and NTZ was solved in CMC. NTZ was delivered into mice via intragastric administration (100 mg/kg BW) every day. Femurs were decalcified in ethylenediaminetetraacetic (EDTA) decalcification solution (Cat #: R20403-5L, OKA, Beijing, China) for 14-21 days. After decalcification, bone tissues were dehydrated in gradient ethanol from 70 to 95%, soaked in n-butanol for 6 h, and then embedded in paraffin. Tissue blocks were cut into 4 μm sections. After baking in an oven at 63°C for 1.5 h, tissue slides were deparaffinized with xylene, hydrated with gradient ethanol, and then stained with H&E (Cat #: BA4025, BaSO, Zhuhai, China). Slides were then mounted for analysis with neutral resins (Cat #: 25608-33-7, Sigma-Aldrich, MO, USA).

For the next test, the system named is PC-3-KQ-Luc cells. Briefly: Bone metastasis assay, prevention mode. In kind it is in vivo, Balb/c nude mice. The following applies: 100 mg/kg intragastric every day.
From the text: as §1

Another test concerns MYBL2. Briefly: MYBL2 expression by qRT-PCR and western blotting. The class given is cell-based, human. To be noted: PC-3 and DU 145 cells expressing KLF5^K369Q; dose- or time-dependent. The protocol:
Total RNA was extracted from cells using the Eastep Super total RNA extraction kit (Cat #: LS1040, Promega, Shanghai, China) and quantified using the NanoDrop One (Thermo Fisher Scientific, Madison, USA). Single-strand cDNA was synthesized from 1 μg of total RNA using the HiScript III All-in-one RT SuperMix kit (Cat #: R333-01, Vazyme, Nanjing, China). For qRT-PCR, the cDNA template was mixed with the SYBR Green reagent in enzyme-free water, and the Qtower3 touch system (Analytik Jena, Jena, Germany) was used for PCR with the following program: initial denaturation at 95°C for 5 min, 40 cycles of 95°C for 30 s, 60°C for 30 s, and 72 °C for 30 s, and a final melting for 15 s. GAPDH was used as an internal control. […].
Cells in 6-well plates were washed with cold PBS and collected in a lysis buffer containing phosphatase and protease inhibitors (Cat #: P1045, Beyotime) to extract proteins. After centrifugation for 10 min at 4°C in a refrigerated centrifuge, the supernatant was collected and mixed with the 4× loading buffer, boiled in a metal heat bath at 100°C for 10 min, and then subjected to 10% SDS-PAGE. Proteins were transferred onto an activated PVDF membrane (0.45 μm pore-size, Cat #: IPVH00010, Millipore, Carrigtwohill, Ireland). […]
For orientation: In qPCR the cycle at which signal appears reflects the starting amount.

The results in this text go back to article PMC9945734 (BMC Medicine, 2023).

Each structure is given as a SMILES string.

In the case of `CC(=O)Oc1ccccc1C(=O)Nc1ncc([N+](=O)[O-])s1` [Nitazoxanide], the entries for the “tumor cell area in bone sections (H&E)” value with PC-3-KR-Luc cells and with PC-3-KQ-Luc cells were “not significantly affected” and “significantly decreased tumor cell area”, respectively. Moreover, the bioluminescence intensity result in the test on PC-3-KR-Luc cells (day 35) is “did not have a significant effect”. Besides, the “bone metastasis, bioluminescence signals” value with PC-3-KQ-Luc cells (day 35) is “dramatically reduced bone metastasis”. Moreover, the “expression of MYBL2 (mRNA and protein)” value with MYBL2 is reported as “reduced the expression of MYBL2”.
